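Interpolation was linear, between the two tested concentrations surrounding the appropriate level; five concentrations were tested over 48 hours in 96-well plates. GI50 is the concentration that inhibits growth by half. At the TGI there is no net growth.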
These molecules were tested on MDA-MB-468 breast (assay: DTP human tumour cell line panel, 48 h).

SMILES	GI50	TGI
OC1(c2ccc(Cl)c(C(F)(F)F)c2)CCN(CCCC(c2ccc(F)cc2)c2ccc(F)cc2)CC1	707 nM	1370 nM
CCCCCCCCCCCC[N+]1(CCCCCCCCCCCC)CCCC(C)C1 (stereo not given)	68.9 nM	388 nM
CCNc1nc(O)c(/C=C2\C=Nc3ncccc32)s1	1990 nM	4270 nM
c1ccc(-c2[nH]ncc2-c2ccnc(-c3ccc(OCCn4ccnc4)cc3)c2)nc1	12200 nM	> 25000 nM
O=C(/C=C/C12c3ccccc3C(c3ccccc31)C1C(=O)NC(=O)C12)c1ccccn1 (stereo not given)	1710 nM	4030 nM
COc1ccc2c(N)ncc(C#Cc3cc(C(=O)Nc4ccc(CN5CCN(C)CC5)c(C(F)(F)F)c4)cnc3C)c2c1	2460 nM	8940 nM
CCN(CC)CCCC(C)NCC(=O)NC(c1ccc2c(c1)OCO2)c1cc(Cl)c2cccnc2c1O (stereo not given)	1870 nM	4500 nM
O=C1/C(=C/c2ccc(Cl)c(Cl)c2)CN(C(=O)CCN2CCC(=NO)CC2)C/C1=C\c1ccc(Cl)c(Cl)c1	898 nM	2400 nM
N#Cc1nc2c(S(=O)(=O)c3ccc(Cl)cc3)c(N)n(Nc3cccc(Cl)c3)c2nc1C#N	7.06 nM	195 nM
Cc1c(C(=N)C(C#N)C#N)c(=N)oc2c1ccc1ccccc12	13500 nM	46000 nM
CN[C@@H](C)C(=O)N[C@H]1CN(S(=O)(=O)c2cccc(S(=O)(=O)N3CC[C@H]4CC[C@@H](C(=O)NC(c5ccccc5)c5ccccc5)N4C(=O)[C@@H](NC(=O)[C@H](C)NC)C3)c2)CC[C@H]2CC[C@@H](C(=O)NC(c3ccccc3)c3ccccc3)N2C1=O	< 10 nM	81.9 nM
COc1ccc(OC)c(NCC(=O)n2nc(/C=C\c3ccc(O)c(OC)c3)cc2/C=C\c2ccc(O)c(OC)c2)c1	2850 nM	23300 nM
O=C(OCc1ccc2c(Br)cc(Br)c(O)c2n1)c1cc2ccccc2[nH]1	419 nM	1540 nM
Nc1nc2c(c3cnccc13)C(c1ccc(Cl)c(Cl)c1)Cc1cnccc1-2 (stereo not given)	270 nM	807 nM
CC(=O)ON1CCCC(P(=O)(OCOC(=O)C(C)(C)C)OCOC(=O)C(C)(C)C)C1=O (stereo not given)	1010 nM	5920 nM
O=C1c2cccc(Oc3ccccc3)c2C(=O)c2cccc(Oc3ccccc3)c21	> 100000 nM	> 100000 nM
COc1cc2c(N3CCN(C(=O)Nc4ccc(OC(C)C)cc4)CC3)ncnc2cc1OCCCN1CCCCC1	14100 nM	42900 nM
CC(=O)O[C@H]1C(=O)[C@@]2(C)C([C@H](OC(=O)c3ccccc3)[C@]3(O)C[C@H](OC(=O)[C@H](O)[C@@H](NC(=O)c4ccccc4)c4ccccc4)C(C)=C1C3(C)C)[C@]1(OC(C)=O)CO[C@@H]1C[C@@H]2O (stereo not given in full)	< 5 nM	54.5 nM
C[C@]12CC[C@H]3[C@@H](CCC4=CC(=O)CC[C@@]43C)[C@@H]1CC[C@@H]2c1csc(N)n1	1170 nM	18500 nM
CC(C)(CO)CNC(=O)c1ccc2[nH]c(O)c(N=Nc3ccc(S(N)(=O)=O)cc3)c2c1	> 17900 nM	> 25000 nM
CCN(CC)Cc1cc(Nc2nc(NC3CCC(N(C)C)CC3)c3ccccc3n2)ccc1OC (stereo not given)	1640 nM	3160 nM
CNCc1cccc2c1OCCOCCOCCN(C)S(=O)(=O)c1ccc(cc1)-c1cnc(N)c(n1)C(=O)N2	2620 nM	14600 nM
CNC(=O)c1ncccc1Nc1nc(Nc2cc3c(cc2OC)CCCN3C(=O)CN(C)C)nc2[nH]ccc12	435 nM	2470 nM
Fc1cccc(Cl)c1/C=N/Nc1nc(N/N=C/c2c(F)cccc2Cl)nc(N2CCCCC2)n1	1860 nM	6890 nM
CCCCCOc1ccc(/C=N/Nc2cc(C)nc3ccc(Cl)cc23)cc1	1700 nM	3370 nM
